Data on 23 molecules can be found in paper PMC9919591, “New Triazine Derivatives as Serotonin 5-HT6 Receptor Ligands” (Molecules, 2023).

One data set deals with T1, human 5-HT6R (Homo sapiens, UniProt P50406).
T1 construct: expressed in transfected cells; host or cells: HEK293
As to the kind of experiment: Radioligand binding assay, 5-HT6R ([3H]-LSD). The note with it: for decrease in affinity for 5-HT6R compared to MST4: ratio of Ki values vs MST4 (Ki = 11 nM); for Ki: [3H]-LSD, HEK293 cells stably expressing human 5-HT6R, average of at least two independent experiments. As to the method:
The affinity of compounds (1–25) for 5-HT6R was evaluated in the radioligand binding assay in HEK293 cells stably expressing human 5-HT6R. [^3H]-LSD as a radioligand was used. […] All results are collected in Table 1, Table 2 and Table 3.
Radioligand binding assays were used to determine the affinity of the synthesized compounds for human serotonin 5-HT6R, 5-HT2AR, 5-HT7R and dopamine D2R, which were stably expressed in HEK293 cells or CHOk1 cells (5-HT2AR). This was done as described previously.

For another data set, the target named is T2, human 5-HT2AR (Homo sapiens, UniProt P28223).
T2 construct: expressed in transfected cells; host or cells: CHO-K1
T2 sequence (P28223 whole entry): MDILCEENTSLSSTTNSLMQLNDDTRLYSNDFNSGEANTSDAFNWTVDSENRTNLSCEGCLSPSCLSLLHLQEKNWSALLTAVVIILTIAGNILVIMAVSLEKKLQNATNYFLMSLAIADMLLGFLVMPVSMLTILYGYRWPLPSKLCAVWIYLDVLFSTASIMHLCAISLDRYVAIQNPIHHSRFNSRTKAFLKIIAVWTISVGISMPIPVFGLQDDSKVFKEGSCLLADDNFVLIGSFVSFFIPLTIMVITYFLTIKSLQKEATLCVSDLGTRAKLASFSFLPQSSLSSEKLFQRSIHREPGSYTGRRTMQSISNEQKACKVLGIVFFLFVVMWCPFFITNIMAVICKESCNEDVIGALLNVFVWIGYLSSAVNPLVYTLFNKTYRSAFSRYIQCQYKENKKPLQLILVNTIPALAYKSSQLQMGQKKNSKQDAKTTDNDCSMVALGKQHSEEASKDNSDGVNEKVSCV
As to the kind of experiment: Radioligand binding assay, 5-HT2AR ([3H]-ketanserin). The note with it: CHO-K1 cells stably expressing human 5-HT2AR. As for the experimental part:
(§1) Affinity for serotonin 5-HT2A, 5-HT7 and dopamine D2 receptors (D2R) as protein off-targets was evaluated in the radioligand binding assays. In CHO-K1 cells, it was stably expressed human 5-HT2AR, whereas human 5-HT7R and D2R were stably expressed in HEK293 cells. […] A particularly weak affinity towards this receptor was shown through compounds of series 1 (compounds 1–7) and series 2 (compounds 8–13). […]. Radioligand binding assays were used to determine the affinity of the synthesized compounds for human serotonin 5-HT6R, 5-HT2AR, 5-HT7R and dopamine D2R, which were stably expressed in HEK293 cells or CHOk1 cells (5-HT2AR). This was done as described previously.

For the next data set, the target named is T3, human 5-HT7R (Homo sapiens, UniProt P34969).
T3 construct: expressed in transfected cells; host or cells: HEK293
T3 sequence (P34969 whole entry): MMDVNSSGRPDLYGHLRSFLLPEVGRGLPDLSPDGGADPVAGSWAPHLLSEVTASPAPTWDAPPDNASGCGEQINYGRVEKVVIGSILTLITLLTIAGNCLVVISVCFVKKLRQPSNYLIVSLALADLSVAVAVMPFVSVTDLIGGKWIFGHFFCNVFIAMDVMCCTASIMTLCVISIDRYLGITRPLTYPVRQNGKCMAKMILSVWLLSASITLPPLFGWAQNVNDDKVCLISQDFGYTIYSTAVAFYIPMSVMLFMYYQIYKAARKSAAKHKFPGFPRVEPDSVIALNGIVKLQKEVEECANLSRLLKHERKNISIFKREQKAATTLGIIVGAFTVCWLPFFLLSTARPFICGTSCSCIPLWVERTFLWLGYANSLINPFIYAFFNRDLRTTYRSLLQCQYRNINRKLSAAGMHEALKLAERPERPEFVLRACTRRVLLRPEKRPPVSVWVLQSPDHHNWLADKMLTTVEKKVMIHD
The experiment in a line: Radioligand binding assay, 5-HT7R ([3H]-5-CT). The note with it: HEK293 cells stably expressing human 5-HT7R. As to the method:
as §1

The target in the next data set is T4, human D2R (Homo sapiens, UniProt P14416).
T4 construct: expressed in transfected cells; host or cells: HEK293
T4 sequence (P14416 whole entry): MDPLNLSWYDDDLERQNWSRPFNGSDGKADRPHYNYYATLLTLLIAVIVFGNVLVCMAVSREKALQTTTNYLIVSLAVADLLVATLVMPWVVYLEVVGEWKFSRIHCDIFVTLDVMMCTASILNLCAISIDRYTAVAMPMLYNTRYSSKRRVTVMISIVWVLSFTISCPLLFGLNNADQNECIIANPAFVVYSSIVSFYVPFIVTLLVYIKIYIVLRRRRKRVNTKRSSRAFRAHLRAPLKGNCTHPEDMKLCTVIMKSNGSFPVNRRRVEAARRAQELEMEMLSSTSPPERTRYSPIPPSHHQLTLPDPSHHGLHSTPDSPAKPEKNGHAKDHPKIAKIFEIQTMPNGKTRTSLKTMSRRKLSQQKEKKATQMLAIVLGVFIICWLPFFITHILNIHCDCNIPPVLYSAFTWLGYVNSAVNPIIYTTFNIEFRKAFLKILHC
As to the kind of experiment: Radioligand binding assay, D2R ([3H]-raclopride). The note with it: HEK293 cells stably expressing human D2R. As to the method:
as §1

Where a name gives a salt, the structure may show the parent alone.

T1 sequence (P50406 whole entry): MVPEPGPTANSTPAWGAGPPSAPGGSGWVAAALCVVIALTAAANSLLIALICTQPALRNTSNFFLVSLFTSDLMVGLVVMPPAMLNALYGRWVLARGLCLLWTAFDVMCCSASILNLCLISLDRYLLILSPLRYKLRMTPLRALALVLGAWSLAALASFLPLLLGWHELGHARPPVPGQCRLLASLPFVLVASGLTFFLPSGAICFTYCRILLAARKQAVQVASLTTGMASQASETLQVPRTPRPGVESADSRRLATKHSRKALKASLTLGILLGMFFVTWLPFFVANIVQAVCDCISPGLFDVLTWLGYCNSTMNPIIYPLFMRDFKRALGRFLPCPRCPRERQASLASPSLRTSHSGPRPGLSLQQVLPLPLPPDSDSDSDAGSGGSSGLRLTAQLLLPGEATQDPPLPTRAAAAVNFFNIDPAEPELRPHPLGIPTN

`CN1CCN(c2nc(N)nc(COc3ccc(C(C)(C)C)cc3C(C)(C)C)n2)CC1` (as salt: hydrochloride) [Compound 13, 4-((2,4-(di-tert-Butyl)phenoxy)methyl)-6-(4-methylpiperazin-1-yl)-1,3,5-triazin-2-amine hydrochloride] gave a melting point of 284 to 287 °C.

For the molecule `Cc1cccc(OCc2nc(N)nc(N3CCN(C)CC3)n2)c1` [Compound 1], the “decrease in affinity for 5-HT6R compared to MST4” value at human 5-HT6R came out at 19 fold.

For `CC(C)c1ccccc1OCc1nc(N)nc(N2CCN(C)CC2)n1` [Compound 2, 4-((2-Isopropylphenoxy)methyl)-6-(4-methylpiperazin-1-yl)-1,3,5-triazin-2-amine], the melting point lay within 140 to 142 °C. Besides, at human 5-HT2AR, the inhibition constant (Ki) amounted to 1.27 µM. In addition, on human 5-HT6R, the Ki is 0.021 µM and the “decrease in affinity for 5-HT6R compared to MST4” value is 2 fold. For the same molecule, the affinity on human 5-HT7R corresponds to a Ki of 16.3 µM.

Regarding `CC(C)c1cccc(OCc2nc(N)nc(N3CCN(C)CC3)n2)c1` [Compound 4, 4-((3-Isopropylphenoxy)methyl)-6-(4-methylpiperazin-1-yl)-1,3,5-triazin-2-amine], the melting point was in the range of 103 to 105 °C. The Ki on human D2R worked out at 1.79 µM. The molecule further came in with a Ki on human 5-HT2AR of 2.61 µM. This molecule gave a Ki at human 5-HT6R of 0.041 µM. The molecule further gave a Ki at human 5-HT7R of 5.73 µM.

On to `CN1CCN(c2nc(N)nc(COc3cccc(C(C)(C)C)c3)n2)CC1` [Compound 5, 4-((3-(tert-Butyl)phenoxy)methyl)-6-(4-methylpiperazin-1-yl)-1,3,5-triazin-2-amine], for which the melting point is 101.2 to 104.1 °C. In addition, at human 5-HT2AR, the Ki turned out to be 3.11 µM. This molecule registered a Ki on human 5-HT6R of 0.108 µM. Besides, the Ki on human 5-HT7R came to 15.5 µM.

`CC(C)c1ccc(OCc2nc(N)nc(N3CCN(C)CC3)n2)cc1` [Compound 6, 4-((4-Isopropylphenoxy)methyl)-6-(4-methylpiperazin-1-yl)-1,3,5-triazin-2-amine]: the melting point fell in the range of 133 to 135 °C. This molecule yielded a Ki on human 5-HT2AR of 0.248 µM. In addition, the Ki at human 5-HT6R worked out at 0.416 µM. The affinity at human 5-HT7R corresponds to a Ki of 10.1 µM.

Regarding `CN1CCN(c2nc(N)nc(COc3ccc(C(C)(C)C)cc3)n2)CC1` [Compound 7, 4-((4-(tert-Butyl)phenoxy)methyl)-6-(4-methylpiperazin-1-yl)-1,3,5-triazin-2-amine], the melting point is 104.4 °C (dec.). This molecule yielded a Ki on human D2R of 3.13 µM. The molecule further had a Ki at human 5-HT2AR of 0.549 µM. This molecule showed a Ki on human 5-HT6R of 0.15 µM. This molecule also registered a Ki at human 5-HT7R of 4.14 µM.

Regarding `Cc1ccc(C(C)(C)C)c(OCc2nc(N)nc(N3CCN(C)CC3)n2)c1.Cl` [Compound 8, 4-((2-(tert-Butyl)-5-methylphenoxy)methyl)-6-(4-methylpiperazin-1-yl)-1,3,5-triazin-2-amine hydrochloride], the melting point was 259 °C (dec.). On human D2R, this molecule returned a Ki of 1.57 µM. The molecule further registered a Ki at human 5-HT2AR of 1.24 µM. On human 5-HT6R, this molecule displayed a Ki of 0.006 µM. Also, the Ki at human 5-HT7R is 15.1 µM.

For `Cc1ccc(OCc2nc(N)nc(N3CCN(C)CC3)n2)c(C(C)(C)C)c1` [Compound 9, 4-((2-(tert-Butyl)-4-methylphenoxy)methyl)-6-(4-methylpiperazin-1-yl)-1,3,5-triazin-2-amine], the melting point is 146.5 °C (dec.). Further, affinity on human D2R was put at a Ki of 2.3 µM. Besides, affinity at human 5-HT2AR was put at a Ki of 1.93 µM. Besides, the Ki at human 5-HT6R was found to be 0.048 µM. Further, the Ki on human 5-HT7R came out at 10.9 µM.

As for `Cc1cccc(C(C)(C)C)c1OCc1nc(N)nc(N2CCN(C)CC2)n1` [Compound 10, 4-((2-(tert-Butyl)-6-methylphenoxy)methyl)-6-(4-methylpiperazin-1-yl)-1,3,5-triazin-2-amine], the melting point was 177 to 179 °C (dec.). Besides, at human 5-HT6R, the affinity corresponds to a Ki of 0.236 µM. The inhibition constant Ki at human 5-HT7R came to 16.6 µM.

In the case of `CC(C)c1cccc(C(C)C)c1OCc1nc(N)nc(N2CCN(C)CC2)n1` [Compound 11, 4-((2,6-Diisopropylphenoxy)methyl)-6-(4-methylpiperazin-1-yl)-1,3,5-triazin-2-amine], the melting point lay in the range of 160 to 163 °C. Also, the affinity at human 5-HT2AR corresponds to a Ki of 7.8 µM. For the same molecule, the Ki at human 5-HT6R came out at 0.825 µM. This molecule also returned a Ki at human 5-HT7R of 33.6 µM.

Turning to `CN1CCN(c2nc(N)nc(COc3c(C(C)(C)C)cccc3C(C)(C)C)n2)CC1` [Compound 12, 4-((2,6-(di-tert-Butyl)phenoxy)methyl)-6-(4-methylpiperazin-1-yl)-1,3,5-triazin-2-amine hydrochloride], the Ki is 0.379 µM on human 5-HT6R and 8.09 µM on human 5-HT7R.

For `CN1CCN(c2nc(N)nc(COc3ccc(C(C)(C)C)cc3C(C)(C)C)n2)CC1` [Compound 13, 4-((2,4-(di-tert-Butyl)phenoxy)methyl)-6-(4-methylpiperazin-1-yl)-1,3,5-triazin-2-amine hydrochloride], the Ki on human D2R came out at 2.74 µM; at human 5-HT2AR it was 0.76 µM; at human 5-HT6R, 0.162 µM; at human 5-HT7R, 8.47 µM.

Turning to `Cc1ccc(C(C)C)c(OCCCc2nc(N)nc(N3CCN(C)CC3)n2)c1` [Compound 14, 4-(3-(2-Isopropyl-5-methylphenoxy)propyl)-6-(4-methylpiperazin-1-yl)-1,3,5-triazin-2-amine], the melting point is 77 °C. Further, on human D2R, the inhibition constant Ki came out at 1.59 µM. This molecule also displayed a Ki at human 5-HT2AR of 1.69 µM. Besides, affinity on human 5-HT6R was put at a Ki of 0.412 µM. The molecule also gave a Ki at human 5-HT7R of 6.66 µM.

Molecule `CC(C)c1ccccc1OCCCc1nc(N)nc(N2CCN(C)CC2)n1.Cl` [Compound 15, 4-(3-(2-Isopropylphenoxy)propyl)-6-(4-methylpiperazin-1-yl)-1,3,5-triazin-2-amine hydrochloride] came in with a melting point of 235 °C. This molecule displayed a Ki on human D2R of 2.43 µM. For the same molecule, the Ki at human 5-HT2AR is 0.489 µM. The same molecule had a Ki at human 5-HT6R of 0.221 µM. In addition, the Ki on human 5-HT7R was 8.87 µM.

Molecule `CC(C)c1ccc(OCCCc2nc(N)nc(N3CCN(C)CC3)n2)cc1` [Compound 16, 4-(3-(4-Isopropylphenoxy)propyl)-6-(4-methylpiperazin-1-yl)-1,3,5-triazin-2-amine] gave a melting point of 92 °C. At human D2R, this molecule gave a Ki of 0.704 µM. For the same molecule, on human 5-HT2AR, affinity was put at a Ki of 1.17 µM. This molecule had a Ki on human 5-HT6R of 1.11 µM. On human 5-HT7R, the affinity corresponds to a Ki of 5.12 µM.

`Cc1cccc(OCCCc2nc(N)nc(N3CCN(C)CC3)n2)c1` [Compound 17, 4-(4-Methylpiperazin-1-yl)-6-(3-(m-tolyloxy)propyl)-1,3,5-triazin-2-amine] had a melting point of 114 to 117 °C. On human D2R, this molecule came in with an inhibitory constant (Ki) of 2.6 µM. Further, at human 5-HT2AR, the Ki amounted to 3.85 µM. The Ki at human 5-HT6R amounted to 1.46 µM. The molecule further registered a Ki on human 5-HT7R of 30.2 µM.

`Cc1ccccc1OCCCc1nc(N)nc(N2CCN(C)CC2)n1` [Compound 18, 4-(4-Methylpiperazin-1-yl)-6-(3-(o-tolyloxy)propyl)-1,3,5-triazin-2-amine] had a melting point of 83 °C. On human D2R, this molecule displayed a Ki of 1.76 µM. In addition, the Ki on human 5-HT2AR is 1.44 µM. For the same molecule, the Ki at human 5-HT6R was found to be 0.574 µM. The molecule further registered a Ki at human 5-HT7R of 14.9 µM.

As for `Cc1ccc(C(C)C)c(OCCCCc2nc(N)nc(N3CCN(C)CC3)n2)c1.Cl` [Compound 19, 4-(4-(2-Isopropyl-5-methylphenoxy)butyl)-6-(4-methylpiperazin-1-yl)-1,3,5-triazin-2-amine hydrochloride], the melting point was found to be 239 °C. The molecule further gave a Ki at human D2R of 3.2 µM. At human 5-HT2AR, the Ki came to 0.687 µM. Moreover, the Ki on human 5-HT6R came to 0.142 µM. In addition, the Ki on human 5-HT7R came out at 0.638 µM.

Regarding `CC(C)c1ccccc1OCCCCc1nc(N)nc(N2CCN(C)CC2)n1` [Compound 20, 4-(4-(2-Isopropylphenoxy)butyl)-6-(4-methylpiperazin-1-yl)-1,3,5-triazin-2-amine], the melting point was determined as 59 °C. On human D2R, this molecule had a Ki of 5.69 µM. The molecule also displayed a Ki on human 5-HT2AR of 0.677 µM. The molecule further displayed a Ki at human 5-HT6R of 0.043 µM. The molecule also yielded a Ki on human 5-HT7R of 0.665 µM.

`Cc1cccc(OCCCCc2nc(N)nc(N3CCN(C)CC3)n2)c1` [Compound 21, 4-(4-Methylpiperazin-1-yl)-6-(4-(m-tolyloxy)butyl)-1,3,5-triazin-2-amine]: the melting point lay within 99 to 101 °C. For the same molecule, the affinity at human D2R, expressed as Ki, was 0.612 µM. Also, the Ki at human 5-HT2AR amounted to 0.952 µM. Besides, affinity on human 5-HT6R was put at a Ki of 0.559 µM. Besides, the Ki at human 5-HT7R turned out to be 6.25 µM.

For the molecule `Cc1ccc(C(C)C)c(OCCCCCc2nc(N)nc(N3CCN(C)CC3)n2)c1` [Compound 22, 4-(5-(2-Isopropyl-5-methylphenoxy)pentyl)-6-(4-methylpiperazin-1-yl)-1,3,5-triazin-2-amine], the melting point was 75 °C (dec.). Besides, on human D2R, the Ki stood at 0.837 µM. The molecule also gave a Ki on human 5-HT2AR of 0.709 µM. For the same molecule, the affinity at human 5-HT6R, expressed as Ki, was 0.282 µM. In addition, the Ki on human 5-HT7R was 0.771 µM.

`CC(C)c1ccccc1OCCCCCc1nc(N)nc(N2CCN(C)CC2)n1` [Compound 23, 4-(5-(2-Isopropylphenoxy)pentyl)-6-(4-methylpiperazin-1-yl)-1,3,5-triazin-2-amine] registered a melting point of 63 to 65 °C. The affinity at human D2R corresponds to a Ki of 0.196 µM. On human 5-HT2AR, this molecule displayed a Ki of 0.597 µM. The same molecule showed a Ki at human 5-HT6R of 0.189 µM. The affinity at human 5-HT7R corresponds to a Ki of 3.43 µM.

Usually melting point stands for the temperature of the solid-liquid transition. For orientation: Ki means a dissociation constant, usually derived from enzyme kinetics or from competition with a known ligand. Read a high Ki as a looser hold on the target.
